In patent US20240124432A1, “HERBICIDAL COMPOUNDS” (SYNGENTA CROP PROTECTION AG, priority 2020, published 2024):

How the values were obtained:
Type in all cases: in vivo
[1] = system: LOLPE; test: Pre-emergence biological efficacy; conditions: Lolium perenne, 312 h, evaluated after 13 days, read-out: damage to plant (100=total damage to plant; 0=no damage to plant)
Outline: (§1)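 Pots sown and kept one day in glasshouse (24/19° C., 16 h light), then sprayed with compound formulated in IF50 (50 g/l) diluted in 0.2% Genapol XO80 to final dose. Grown at 24/18° C., 15 h light, 50% humidity; damage scored after 13 days, 0 none to 100 total.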

[2] = system: EPHHL; test: Pre-emergence biological efficacy; conditions: Euphorbia heterophylla, 312 h, evaluated after 13 days, read-out: damage to plant (100=total damage to plant; 0=no damage to plant)
Outline: as §1

[3] = system: SETFA; test: Pre-emergence biological efficacy; conditions: Setaria faberi, 312 h, evaluated after 13 days, read-out: damage to plant (100=total damage to plant; 0=no damage to plant)
Outline: as §1

[4] = system: AMAPA; test: Pre-emergence biological efficacy; conditions: Amaranthus palmeri, 312 h, evaluated after 13 days, read-out: damage to plant (100=total damage to plant; 0=no damage to plant)
Outline: as §1

[5] = system: ECHCG; test: Pre-emergence biological efficacy; conditions: Echinochloa crus-galli, 312 h, evaluated after 13 days, read-out: damage to plant (100=total damage to plant; 0=no damage to plant)
Outline: as §1

[6] = system: IPOHE; test: Pre-emergence biological efficacy; conditions: Ipomoea hederacea, 312 h, evaluated after 13 days, read-out: damage to plant (100=total damage to plant; 0=no damage to plant)
Outline: as §1

[7] = system: LOLPE; test: Post-emergence biological efficacy; conditions: Lolium perenne, 312 h, evaluated after 13 days, read-out: damage to plant (100=total damage to plant; 0=no damage to plant)
Outline: (§2)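 Damage was rated 13 days after treatment, from 0 (none) to 100 (total). Test compounds, formulated in IF50 and diluted with 0.2% Genapol XO80 to final dose, were sprayed on glasshouse plants raised for 14 days from seed.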

[8] = system: DIGSA; test: Post-emergence biological efficacy; conditions: Digitaria sanguinalis, 312 h, evaluated after 13 days, read-out: damage to plant (100=total damage to plant; 0=no damage to plant)
Outline: as §2

[9] = system: EPHHL; test: Post-emergence biological efficacy; conditions: Euphorbia heterophylla, 312 h, evaluated after 13 days, read-out: damage to plant (100=total damage to plant; 0=no damage to plant)
Outline: as §2

[10] = system: SETFA; test: Post-emergence biological efficacy; conditions: Setaria faberi, 312 h, evaluated after 13 days, read-out: damage to plant (100=total damage to plant; 0=no damage to plant)
Outline: as §2

[11] = system: AMAPA; test: Post-emergence biological efficacy; conditions: Amaranthus palmeri, 312 h, evaluated after 13 days, read-out: damage to plant (100=total damage to plant; 0=no damage to plant)
Outline: as §2

[12] = system: CHEAL; test: Post-emergence biological efficacy; conditions: Chenopodium album, 312 h, evaluated after 13 days, read-out: damage to plant (100=total damage to plant; 0=no damage to plant)
Outline: as §2

[13] = system: ECHCG; test: Post-emergence biological efficacy; conditions: Echinochloa crus-galli, 312 h, evaluated after 13 days, read-out: damage to plant (100=total damage to plant; 0=no damage to plant)
Outline: as §2

[14] = system: IPOHE; test: Post-emergence biological efficacy; conditions: Ipomoea hederacea, 312 h, evaluated after 13 days, read-out: damage to plant (100=total damage to plant; 0=no damage to plant)
Outline: as §2

[15] = system: ELEIN; test: Post-emergence biological efficacy; conditions: 312 h, evaluated after 13 days, read-out: damage to plant (100=total damage to plant; 0=no damage to plant)
Outline: as §2

Row | SMILES | pest or weed control at 250 g/ha [1] [%] | pest or weed control at 250 g/ha [2] [%] | pest or weed control at 250 g/ha [3] [%] | pest or weed control at 250 g/ha [4] [%] | pest or weed control at 250 g/ha [5] [%] | pest or weed control at 250 g/ha [6] [%] | pest or weed control at 250 g/ha [7] [%] | pest or weed control at 250 g/ha [8] [%] | pest or weed control at 250 g/ha [9] [%] | pest or weed control at 250 g/ha [10] [%] | pest or weed control at 250 g/ha [11] [%] | pest or weed control at 250 g/ha [12] [%] | pest or weed control at 250 g/ha [13] [%] | pest or weed control at 250 g/ha [14] [%] | pest or weed control at 250 g/ha [15] [%]
1 | CCOC(=O)C1(C)CC(c2cc(-c3ncc(C(F)(F)F)cc3Br)c(F)cc2Cl)=NO1 (stereo not drawn) [Compound 1-571, Ethyl 3-[5-[3-bromo-5-(trifluoromethyl)-2-pyridyl]-2-chloro-4-fluoro-phenyl]-5-methyl-4H-isoxazole-5-carboxylate] | 70 | 0 | 10 | 100 | 10 | 0 | 90 | 60 | 100 | 90 | 100 | 100 | 30 | 70 | 90
2 | CCOC(=O)C1(C)CC(c2cc(-c3ncc(C(F)F)cc3Cl)c(F)cc2Cl)=NO1 (stereo not drawn) [Compound 1-583, Ethyl 3-[2-chloro-5-[3-chloro-5-(difluoromethyl)-2-pyridyl]-4-fluoro-phenyl]-5-methyl-4H-isoxazole-5-carboxylate] | 60 | 100 | 90 | 100 | 90 | 60 | 100 | 90 | 100 | 100 | 100 | 100 | 100 | 100 | 90
3 | CCOC(=O)C1(C)CC(c2cc(-c3ncc(C(C)(F)F)cc3Cl)c(F)cc2Cl)=NO1 (stereo not drawn) [Compound 1-595, ethyl 3-[2-chloro-5-[3-chloro-5-(1,1-difluoroethyl)-2-pyridyl]-4-fluoro-phenyl]-5-methyl-4H-isoxazole-5-carboxylate] | 90 | 100 | 100 | 100 | 100 | 80 | 100 | 100 | 100 | 100 | 100 | 100 | 100 | 100 | 100
4 | CCOC(=O)C1(C)CC(c2cc(-c3ncc(C#N)cc3Cl)c(F)cc2Cl)=NO1 (stereo not drawn) [Compound 1-607, Ethyl 3-[2-chloro-5-(3-chloro-5-cyano-2-pyridyl)-4-fluoro-phenyl]-5-methyl-4H-isoxazole-5-carboxylate] | 20 | 50 | 10 | 100 | 70 | 30 | 70 | 70 | 100 | 80 | 100 | 100 | 40 | 100 | 60
5 | CCOC(=O)C1(C)CC(c2cc(-c3ncc(C(C)=O)cc3Cl)c(F)cc2Cl)=NO1 (stereo not drawn) [Compound 1-631, Ethyl 3-[5-(5-acetyl-3-chloro-2-pyridyl)-2-chloro-4-fluoro-phenyl]-5-methyl-4H-isoxazole-5-carboxylate] | 0 | 0 | 0 | 0 | 0 | 0 | 0 | 30 | 20 | 10 | 10 | 20 | 40 | 40 | 10
6 | CCOC(=O)C1(C)CC(c2cc(-c3ncc(S(C)(=O)=O)cc3Cl)c(F)cc2Cl)=NO1 (stereo not drawn) [Compound 1-643, Ethyl 3-[2-chloro-5-(3-chloro-5-methylsulfonyl-2-pyridyl)-4-fluoro-phenyl]-5-methyl-4H-isoxazole-5-carboxylate] | 100 | 100 | 100 | 100 | 100 | 100 | 100 | 100 | 100 | 100 | 100 | 100 | 100 | 100 | 100
7 | CCOC(=O)C1(C)CC(c2cc(-c3ccc(C(F)(F)F)nc3Cl)c(F)cc2Cl)=NO1 (stereo not drawn) [Compound 1-655, Ethyl 3-[2-chloro-5-[2-chloro-6-(trifluoromethyl)-3-pyridyl]-4-fluoro-phenyl]-5-methyl-4H-isoxazole-5-carboxylate] | 40 | 90 | 30 | 100 | 40 | 40 | 80 | 70 | 100 | 90 | 100 | 100 | 90 | 100 | 80
8 | CCOC(=O)C1(C)CC(c2cc(-c3c(Cl)cc(C(F)(F)F)c[n+]3[O-])ccc2Cl)=NO1 (stereo not drawn) [Compound 1-663, Ethyl 3-[2-chloro-5-(3-chloro-1-oxido-5-trifluoromethyl-2-pyridyl)-phenyl]-5-methyl-4H-isoxazole-5-carboxylate] | 50 | 90 | 40 | 100 | 30 | 90 | 100 | 100 | 100 | 100 | 100 | 100 | 100 | 100 | 100
9 | CCOC(=O)C1(C)CC(c2cc(-c3c(Cl)cc(C(F)(F)F)c[n+]3[O-])c(F)cc2Cl)=NO1 (stereo not drawn) [Compound 1-667, Ethyl 3-[2-chloro-5-(3-chloro-1-oxido-5-trifluoromethyl-2-pyridyl)-4-fluoro-phenyl]-5-methyl-4H-isoxazole-5-carboxylate] | 100 | 100 | 100 | 100 | 100 | 100 | 100 | 100 | 100 | 100 | 100 | 100 | 100 | 100 | 100
10 | CCOC(=O)C1(C)CC(c2cc(-c3ccc(Cl)nn3)c(F)cc2Cl)=NO1 (stereo not drawn) [Compound 1-679, Ethyl 3-[2-chloro-5-(6-chloropyridazin-3-yl)-4-fluoro-phenyl]-5-methyl-4H-isoxazole-5-carboxylate] | 0 | 0 | 0 | 0 | 0 | 0 | 10 | 50 | 50 | 50 | 60 | 60 | 50 | 40 | 60
